How the values were obtained:
[1] = target: T1, angiotensin I converting enzyme (Bos taurus, UniProt P12820); experiment: Anti-angiotensin I converting enzyme activity (modified Hayakari method, hippuryl-L-histidyl-L-leucine substrate, absorbance at 382 nm); type: biochemical, bovine; conditions: material from the purification steps of Examples 2 and 3; read-out: angiotensin I converting enzyme inhibitory activity (IC50) (converted)
T1 construct: obtained from a bovine lung and partially purified; from tissue; host or cells: bovine lung
T1 sequence (P12820 29-1306): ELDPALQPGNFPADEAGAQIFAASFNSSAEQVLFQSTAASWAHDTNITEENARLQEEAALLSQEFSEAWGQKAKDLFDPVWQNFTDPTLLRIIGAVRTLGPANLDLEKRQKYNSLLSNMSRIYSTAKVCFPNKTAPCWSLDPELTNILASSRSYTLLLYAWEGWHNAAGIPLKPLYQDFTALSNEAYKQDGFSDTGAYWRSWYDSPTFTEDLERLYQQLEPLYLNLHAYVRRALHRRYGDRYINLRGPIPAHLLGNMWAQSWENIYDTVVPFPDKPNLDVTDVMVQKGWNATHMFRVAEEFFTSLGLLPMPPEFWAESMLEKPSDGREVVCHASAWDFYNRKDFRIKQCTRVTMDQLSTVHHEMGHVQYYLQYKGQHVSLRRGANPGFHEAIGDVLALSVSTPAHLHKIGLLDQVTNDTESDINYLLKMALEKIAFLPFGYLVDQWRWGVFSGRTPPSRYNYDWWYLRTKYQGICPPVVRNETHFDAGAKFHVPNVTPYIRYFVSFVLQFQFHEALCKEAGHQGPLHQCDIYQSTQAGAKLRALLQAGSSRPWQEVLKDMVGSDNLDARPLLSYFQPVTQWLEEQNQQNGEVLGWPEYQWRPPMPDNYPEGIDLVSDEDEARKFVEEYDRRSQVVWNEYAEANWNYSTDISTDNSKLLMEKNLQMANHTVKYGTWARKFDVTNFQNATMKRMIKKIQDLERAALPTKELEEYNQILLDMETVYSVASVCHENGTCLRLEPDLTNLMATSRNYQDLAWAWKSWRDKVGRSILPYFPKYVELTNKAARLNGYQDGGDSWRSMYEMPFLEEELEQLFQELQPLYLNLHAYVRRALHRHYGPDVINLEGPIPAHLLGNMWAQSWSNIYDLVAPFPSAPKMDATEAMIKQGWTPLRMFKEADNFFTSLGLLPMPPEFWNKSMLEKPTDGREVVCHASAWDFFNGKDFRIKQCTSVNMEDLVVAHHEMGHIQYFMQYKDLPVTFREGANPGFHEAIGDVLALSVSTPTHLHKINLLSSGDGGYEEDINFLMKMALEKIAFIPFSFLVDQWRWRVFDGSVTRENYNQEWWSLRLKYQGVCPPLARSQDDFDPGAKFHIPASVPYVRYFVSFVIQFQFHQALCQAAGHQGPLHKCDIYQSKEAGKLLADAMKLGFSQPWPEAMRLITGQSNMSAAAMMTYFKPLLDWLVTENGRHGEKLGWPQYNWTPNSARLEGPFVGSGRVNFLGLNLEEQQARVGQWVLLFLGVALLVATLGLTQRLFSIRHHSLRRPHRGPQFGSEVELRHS
Description: Follow-up of foroxymithine during the cultivation step and the purification step was performed in accordance with the determination of anti-angiotensin I converting enzyme activity by the method to be described below.
Anti-angiotensin I converting enzyme activity was determined by a modification of the angiotensin I converting enzyme determination technique described in M. Hayakari et al., Analytical Biochemistry Vol. 84, pages 361-369 (1978). Hippuryl-L-histidyl-L-leucine as a substrate was dissolved at a concentration of 5 mg/ml in Tris-hydrochloride buffer (0.5M, pH 8.0) containing 0.3M sodium chloride. 0.40 ml of a solution containing a test material was added to 0.05 ml of the resulting solution. The mixture was heated at 37'C for 3 minutes. Then, 0.05 ml of a solution containing angiotensin I converting enzyme that had been obtained from a bovine lung and partially purified was added, and the mixture was reacted for 30 minutes at 37.C. […] After the system was allowed to stand for 15 minutes at room temperature, its absorbance (termed absorbance (a)) at 382 nm was measure. […] The reaction system as the control was measured for absorbance, which was termed absorbance (b). The angiotensin I converting enzyme inhibition rate (%) was calculated from the equation (b-a)/b x 100. […]

[2] = system: spontaneous hypertensive rats (SH rats); experiment: Effect on blood pressure in spontaneous hypertensive rats after oral administration; type: in vivo
Description: This Example illustrates the effect of foroxymithine on blood pressure in spontaneous hypertensive rats (SH rate).
SH rats weighing 320 to 358 g were orally administered foroxymithine dihydrate as an aqueous solution at do- see of 12.5, 25 and 50 mg/kg. After the administration, blood pressure was measured at certain time intervals. Changes in blood pressure in the foroxymithine- administered group were compared with those in the control group orally administered distilled water only.

mice = experiment: Acute toxicity studies in mice; type: in vivo; conditions: 800 mg/kg i.v.
Text: Foroxymithine is therefore a low-toxicity substance.

[3] = oral dose 12.5 mg/kg, 1 hour after administration
[4] = oral dose 12.5 mg/kg, 3 hours after administration
[5] = oral dose 12.5 mg/kg, 6 hours after administration
[6] = oral dose 12.5 mg/kg, 24 hours after administration
[7] = oral dose 50.0 mg/kg, 1 hour after administration
[8] = oral dose 50.0 mg/kg, 3 hours after administration
[9] = oral dose 50.0 mg/kg, 6 hours after administration
[10] = oral dose 50.0 mg/kg, 24 hours after administration

Compound: CC(=O)NC(CCCN(O)C=O)C(=O)NC(CO)C(=O)N(O)CCCC1NC(=O)C(CCCN(O)C=O)NC1=O (stereo not drawn) [Foroxymithine dihydrate, foroxymithine]
- IC50 [1]: 12.2 µM
- Mean blood pressure ± S.D. [2, 3]: 180 ± 0.7 mmHg
- decrease in blood pressure [2, 3]: 14.3%
- Mean blood pressure ± S.D. [2, 4]: 190 ± 28.2 mmHg
- decrease in blood pressure [2, 4]: 9.5%
- Mean blood pressure ± S.D. [2, 5]: 200 ± 14.1 mmHg
- decrease in blood pressure [2, 5]: 4.8%
- Mean blood pressure ± S.D. [2, 6]: 210 ± 14.1 mmHg
- decrease in blood pressure [2, 6]: 0%
- Mean blood pressure ± S.D. ([2]; oral dose 12.5 mg/kg, before administration): 210 ± 0.7 mmHg
- Mean blood pressure ± S.D. [2, 7]: 160 ± 7.0 mmHg
- decrease in blood pressure [2, 7]: 23.8%
- Mean blood pressure ± S.D. [2, 8]: 153 ± 3.5 mmHg
- decrease in blood pressure [2, 8]: 27.1%
- Mean blood pressure ± S.D. [2, 9]: 193 ± 10.6 mmHg
- decrease in blood pressure [2, 9]: 8.1%
- Mean blood pressure ± S.D. [2, 10]: 213 ± 3.5 mmHg
- decrease in blood pressure [2, 10]: -1.4%
- Mean blood pressure ± S.D. ([2]; oral dose 50.0 mg/kg, before administration): 210 ± 0.0 mmHg
- effect on blood pressure ([2]; spontaneous hypertensive rats (SH rats), oral, conclusion in words): lower blood pressure
- deaths (acute toxicity) (mice): no deaths

Reference: patent EP0162422A2, “The novel physiologically active substance foroxymithine, a process and microorganisms for its production and its use as medicament” (MICROBIAL CHEMISTRY RESEARCH FOUNDATION, priority 1984, dated 1985)
